Numbers after ± are expanded uncertainties.
Conditions: for mass density: 700 kPa, Gamma attenuation method; for viscosity: Capillary tube (Ostwald / Ubbelohde) method

C1C[C@@H]2[C@H]3CC[C@H](C3)[C@@H]2C1 [exo-tetrahydrodicyclopentadiene]
Conditions | mass density [kg/m3]
239.8 K, Liquid | 965.9 ± 15
266.2 K, Liquid | 955.9 ± 15
290.9 K, Liquid | 945.8 ± 15
307 K, Liquid | 936.3 ± 15
337.1 K, Liquid | 917.3 ± 15
368.4 K, Liquid | 890 ± 15
391.9 K, Liquid | 877.6 ± 15
428.7 K, Liquid | 857.3 ± 15
468.5 K, Liquid | 818.7 ± 16
483.8 K, Liquid | 779.5 ± 16
510 K, Liquid | 759.3 ± 15
532.4 K, Liquid | 737.7 ± 17
562.1 K, Liquid | 646.3 ± 18
603.4 K, Gas | 25.5 ± 2.7
651.6 K, Gas | 22.9 ± 2.7
682.7 K, Gas | 29.4 ± 2.7
730.2 K, Gas | 19.5 ± 2.8
744.7 K, Gas | 19.7 ± 2.8
771.9 K, Gas | 26.4 ± 2.7
803.3 K, Gas | 24.4 ± 2.7
833 K, Gas | 25.4 ± 2.7
873.3 K, Gas | 24.4 ± 2.7

Conditions | viscosity [mPa·s]
242.7 K, 690 kPa, Liquid | 10.69 ± 1.1
242.7 K, 1700 kPa, Liquid | 10.73 ± 1.1
242.7 K, 3000 kPa, Liquid | 10.8 ± 1.1
242.7 K, 6000 kPa, Liquid | 10.82 ± 1.1
262.4 K, 690 kPa, Liquid | 5.78 ± 0.58
262.4 K, 1700 kPa, Liquid | 5.82 ± 0.59
262.5 K, 3000 kPa, Liquid | 5.828 ± 0.59
262.5 K, 6000 kPa, Liquid | 5.888 ± 0.59
303.1 K, 3000 kPa, Liquid | 2.49 ± 0.25
303.1 K, 6000 kPa, Liquid | 2.498 ± 0.25
303.2 K, 690 kPa, Liquid | 2.479 ± 0.25
303.2 K, 1700 kPa, Liquid | 2.483 ± 0.25
313.1 K, 690 kPa, Liquid | 1.996 ± 0.2
313.2 K, 1700 kPa, Liquid | 2.026 ± 0.2
313.2 K, 3000 kPa, Liquid | 2.146 ± 0.22
313.2 K, 6000 kPa, Liquid | 2.186 ± 0.22
333.1 K, 3000 kPa, Liquid | 1.709 ± 0.17
333.1 K, 6000 kPa, Liquid | 1.758 ± 0.18
333.2 K, 690 kPa, Liquid | 1.68 ± 0.17
333.2 K, 1700 kPa, Liquid | 1.701 ± 0.17
353.1 K, 690 kPa, Liquid | 1.142 ± 0.11
353.1 K, 3000 kPa, Liquid | 1.234 ± 0.12
353.1 K, 6000 kPa, Liquid | 1.268 ± 0.13
353.2 K, 1700 kPa, Liquid | 1.165 ± 0.12
373.1 K, 690 kPa, Liquid | 0.8868 ± 0.089
373.1 K, 1700 kPa, Liquid | 0.9068 ± 0.091
373.2 K, 3000 kPa, Liquid | 0.9467 ± 0.095
373.2 K, 6000 kPa, Liquid | 0.9789 ± 0.098
393 K, 3000 kPa, Liquid | 0.7365 ± 0.074
393.1 K, 1700 kPa, Liquid | 0.7265 ± 0.073
393.2 K, 690 kPa, Liquid | 0.7065 ± 0.071
393.4 K, 6000 kPa, Liquid | 0.7661 ± 0.077
412.9 K, 3000 kPa, Liquid | 0.5811 ± 0.058
413.1 K, 1700 kPa, Liquid | 0.5518 ± 0.055
413.1 K, 6000 kPa, Liquid | 0.6028 ± 0.06
413.2 K, 690 kPa, Liquid | 0.5267 ± 0.053
433.1 K, 1700 kPa, Liquid | 0.4372 ± 0.044
433.1 K, 3000 kPa, Liquid | 0.4776 ± 0.048
433.2 K, 690 kPa, Liquid | 0.4172 ± 0.042
433.2 K, 6000 kPa, Liquid | 0.4992 ± 0.05
453.1 K, 690 kPa, Liquid | 0.3605 ± 0.036
453.1 K, 1700 kPa, Liquid | 0.4005 ± 0.04
453.1 K, 6000 kPa, Liquid | 0.4321 ± 0.043
453.2 K, 3000 kPa, Liquid | 0.3903 ± 0.039
473.1 K, 6000 kPa, Liquid | 0.3675 ± 0.037
473.2 K, 690 kPa, Liquid | 0.3123 ± 0.031
473.2 K, 1700 kPa, Liquid | 0.3003 ± 0.03
473.2 K, 3000 kPa, Liquid | 0.3204 ± 0.032
493.1 K, 6000 kPa, Liquid | 0.3055 ± 0.031
493.2 K, 690 kPa, Liquid | 0.2255 ± 0.023
493.2 K, 1700 kPa, Liquid | 0.2552 ± 0.026
493.2 K, 3000 kPa, Liquid | 0.2752 ± 0.028
513.1 K, 6000 kPa, Liquid | 0.2964 ± 0.03
513.2 K, 690 kPa, Liquid | 0.2054 ± 0.021
513.2 K, 1700 kPa, Liquid | 0.2204 ± 0.022
513.2 K, 3000 kPa, Liquid | 0.2264 ± 0.023
533.2 K, 690 kPa, Liquid | 0.1602 ± 0.016
533.2 K, 1700 kPa, Liquid | 0.1809 ± 0.018
533.4 K, 3000 kPa, Liquid | 0.1837 ± 0.018
533.4 K, 6000 kPa, Liquid | 0.2139 ± 0.022
552.9 K, 690 kPa, Liquid | 0.1309 ± 0.013
552.9 K, 1700 kPa, Liquid | 0.1509 ± 0.015
553.3 K, 6000 kPa, Liquid | 0.1899 ± 0.019
553.5 K, 3000 kPa, Liquid | 0.1502 ± 0.015
573.3 K, 6000 kPa, Liquid | 0.1554 ± 0.016
573.4 K, 690 kPa, Gas | 0.0304 ± 0.0026
573.4 K, 1700 kPa, Liquid | 0.1254 ± 0.013
573.4 K, 3000 kPa, Liquid | 0.1354 ± 0.014
593.2 K, 690 kPa, Gas | 0.0324 ± 0.0026
593.2 K, 1700 kPa, Gas | 0.0394 ± 0.0027
593.2 K, 6000 kPa, Liquid | 0.1453 ± 0.015
593.3 K, 3000 kPa, Gas | 0.1154 ± 0.0032
613 K, 3000 kPa, Gas | 0.1016 ± 0.0031
613.4 K, 6000 kPa, Liquid | 0.1316 ± 0.013
613.6 K, 690 kPa, Gas | 0.0288 ± 0.0026
613.6 K, 1700 kPa, Gas | 0.0389 ± 0.0027
633.3 K, 3000 kPa, Gas | 0.0977 ± 0.003
633.3 K, 6000 kPa, Liquid | 0.1177 ± 0.012
633.4 K, 690 kPa, Gas | 0.0338 ± 0.0026
633.4 K, 1700 kPa, Gas | 0.0371 ± 0.0026
653.3 K, 690 kPa, Gas | 0.0277 ± 0.0026
653.3 K, 1700 kPa, Gas | 0.0328 ± 0.0026
653.4 K, 3000 kPa, Gas | 0.0898 ± 0.003
653.5 K, 6000 kPa, Liquid | 0.0991 ± 0.01
672.3 K, 3000 kPa, Gas | 0.0804 ± 0.0029
673.2 K, 6000 kPa, Liquid | 0.0956 ± 0.0096
673.3 K, 690 kPa, Gas | 0.0265 ± 0.0026
673.3 K, 1700 kPa, Gas | 0.0302 ± 0.0026
692.5 K, 690 kPa, Gas | 0.0311 ± 0.0026
692.5 K, 1700 kPa, Gas | 0.0321 ± 0.0026
692.5 K, 3000 kPa, Gas | 0.0768 ± 0.0028
692.5 K, 6000 kPa, Liquid | 0.0927 ± 0.0093
713.8 K, 690 kPa, Gas | 0.0276 ± 0.0026
713.8 K, 1700 kPa, Gas | 0.0294 ± 0.0026
713.8 K, 3000 kPa, Gas | 0.0689 ± 0.0027
713.8 K, 6000 kPa, Gas | 0.0889 ± 0.0029
734 K, 690 kPa, Gas | 0.0303 ± 0.0026
734 K, 1700 kPa, Gas | 0.0324 ± 0.0026
734 K, 3000 kPa, Gas | 0.0645 ± 0.0027
734 K, 6000 kPa, Gas | 0.0844 ± 0.0028
753.3 K, 690 kPa, Gas | 0.0324 ± 0.0026
753.3 K, 1700 kPa, Gas | 0.0352 ± 0.0026
753.3 K, 3000 kPa, Gas | 0.0628 ± 0.0027
753.3 K, 6000 kPa, Gas | 0.0828 ± 0.0028

CCCCCCCC [octane]
5100 kPa, Liquid
Conditions | viscosity [mPa·s]
303.2 K | 0.5014 ± 0.0046
353.1 K | 0.3078 ± 0.0037
403.2 K | 0.207 ± 0.0031
453.1 K | 0.1465 ± 0.0028
503 K | 0.1049 ± 0.0027
553.4 K | 0.0692 ± 0.0026

Reference: the NIST ThermoML archive (doi:10.1021/acs.jced.7b00396)
